Measurements taken from patent US20050277612A1, “Methods, compositions and compound assays for inhibiting amyloid-beta protein production” (priority 2004, published 2005).

Assays:
[1] = test system: amyloid beta 1-42 levels in the conditioned medium of SH-SY5Y cells; assay: Amyloid beta 1-42 ELISA after adenoviral knock down of SPHK2; format: cell-based; settings: SH-SY5Y cells co-infected with adenoviruses expressing APPwt and the KD sequence, compared to GL2 KD virus infected cells
Description: Cells seeded in collagen-coated plates at a cell density of 15000 cells/well (384 well plate) in DMEM (10% FBS), are infected 24 h later with 1 μl or 0.2 μl of adenovirus (corresponding to an average multiplicity of infection (MOI) of 120 and 24 respectively). The following day, the virus is washed away and DMEM (25 mM Hepes; […]) is added to the cells. Amyloid-beta peptides are allowed to accumulate during 24 h. The ELISA plate is prepared by coating with a capture antibody (JRF/cAbeta42/26) (obtained from M Mercken, Johnson and Johnson Pharmaceutical Research and Development, B-2340 Beerse, Belgium) overnight in buffer 42 (Table 2) at a concentration of 2.5 μg/ml. The excess capture antibody is washed away the next morning with PBS and the ELISA plate is then blocked overnight with casein buffer (see Table 2) at 4° C. […] Following the removal of excess detection antibody by a wash with PBS-Tween20 and PBS, HRP activity is detected via addition of luminol substrate (Roche), which is converted into a chemiluminescent signal by the HRP enzyme. […]
(§1) Adenoviral knock down constructs are used to transduce mouse, rat or human primary neuronal cells and/or cell lines (e.g. HEK293, SH-SY5Y, IMR-32, SK-N—SH, SK-N-MC, H4, CHO, COS, HeLa) stably over-expressing APPwt or not. […] In addition, RNA is isolated from these infected cells and SPHK2 RNA levels are determined via real time PCR. […]

SPHK2 RNA = SPHK2 RNA levels via real time PCR in KD virus infected cells; format: cell-based, Homo Sapiens; settings: infected SH-SY5Y cells, normalized to household keeping genes (GAPDH)
Text: Upon identification of protein kinase involved of APP processing, it is essential to evaluate whether the kinase is expressed in the tissue and cells of interest. This can be achieved by measuring RNA and/or protein levels. In recent years, RNA levels are being quantified through real time PCR technologies, whereby the RNA is first transcribed to cDNA and then the amplification of the cDNA of interest is monitored during a PCR reaction. The amplification plot and the resulting Ct value are indicators for the amount of RNA present in the sample. To assess whether SPHK cDNA is expressed in the human brain, real time PCR with GAPDH specific primers and specific primers for polynucleotides coding for the SPHK polypeptide (Table 3) is performed on human total brain, human cerebral cortex, and human hippocampal total RNA (BD Biosciences). GAPDH RNA is detected with a Taqman probe, while for the polynucleotides of the invention SybrGreen is used. 40 ng of RNA is transcribed to DNA using the MultiScribe Reverse Transcriptase (50 U/μl) enzyme (Applied BioSystems). […]
as §1

In the case of ACTTCTGCATCTACACCTACC [SEQ ID NO: 6], the “amyloid beta 1-42 levels in the conditioned medium” value [1] was “reduction” and the “SPHK2 RNA levels” value (SPHK2 RNA) was “reduced”.
